# Measured values published in publication PMC10787358 (Science translational medicine, 2023).
# What was measured:
# [1] = test system: SARS-CoV-2 WT, Beta, Delta, Omicron BA.2; type: cell-based; conditions: UDCA 10 μM, ML364 4 μM, MS102 4 μM, 48 h
# [2] = test system: SARS-CoV-2 Beta and Delta variants; type: cell-based
# [3] = test system: SARS-CoV-2; design: species or system hACE2 transgenic mice; conditions: mouse, in vivo
Compound,inhibition of infection of Calu-3 cells by authentic SARS-CoV-2 (TCID50) [1],inhibition of authentic SARS-CoV-2 variants [2],therapeutic effectiveness against SARS-CoV-2 infection [3]
"C[C@H](CCC(=O)O)[C@H]1CC[C@H]2[C@@H]3[C@@H](O)C[C@@H]4C[C@H](O)CC[C@]4(C)[C@H]3CC[C@]12C [UDCA, ursodeoxycholic acid]",exhibited efficacy,,
Cc1ccc(S(=O)(=O)Nc2ccc(C(F)(F)F)cc2C(=O)Nc2nc(-c3ccc(Br)cc3)cs2)cc1 [MS102],superior activity,,
Cc1ccc(S(=O)(=O)Nc2cc(C(F)(F)F)ccc2C(=O)Nc2nc(-c3ccccc3)cs2)cc1 [ML364],,broad inhibition,substantial therapeutic potential
